In patent US4740233A, “Substituted 1,2,4-triazolo[1,5-a]-pyrimidine-2-sulfonamides and compositions and methods of controlling undesired vegetation and suppressing the nitrification of ammonium nitrogen in soil” (The Dow Chemical Company, priority 1986, dated 1988):

Assays:
wild oats = assay: Postemergent control of plant species; type: in vivo, Avena fatua; conditions: Avena fatua, post-emergence, 336 h, read-out: percent postemergent control
Description: (§1) In representative operations, each compound to be utilized in a series of tests is dissolved in acetone to one-half of the final volume (twice the final concentration) to be used and the acetone solution in each case is admixed with an equal volume of water containing 0.1 percent by weight of surface active material. The compositions, generally in the nature of an emulsion, were employed to spray separate respective plant species which had been grown to a 2-4 leaf stage in soil of good nutrient content in a greenhouse. The various beds were positioned side by side and exposed to substantially identical conditions of temperature and light. Each bed was maintained so as to prevent any interaction with test compounds in different seed beds. Other plants were left untreated to serve as controls. After treatment, the plants were maintained for about two weeks under greenhouse conditions conducive for good plant growth and watered as necessary. Control refers to the reduction in growth compared to the observed results of the same untreated species.

johnson grass [1] = assay: Postemergent control of plant species; type: in vivo, Sorghum halepense; conditions: Sorghum halepense, post-emergence, 336 h, read-out: percent postemergent control
Description: as §1

cotton [2] = assay: Postemergent control of plant species; type: in vivo, Gossypium spp.; conditions: Gossypium hirsutum, post-emergence, 336 h, read-out: percent postemergent control
Description: as §1

yellow nutsedge [3] = assay: Postemergent control of plant species; type: in vivo, Cyperus esculentus; conditions: Cyperus, post-emergence, 336 h, read-out: percent postemergent control
Description: as §1

velvetleaf [4] = assay: Postemergent control of plant species; type: in vivo, Abutilon theophrasti; conditions: Abutilon theophrasti, post-emergence, 336 h, read-out: percent postemergent control
Description: as §1

rice [5] = assay: Postemergent control of plant species; type: in vivo, Oryza sativa; conditions: Oryza sativa, post-emergence, 336 h, read-out: percent postemergent control
Description: as §1

barnyardgrass [6] = assay: Postemergent control of plant species; type: in vivo, Echinochloa crusgalli; conditions: Echinochloa crus-galli, post-emergence, 336 h, read-out: percent postemergent control
Description: as §1

rape [7] = assay: Postemergent control of plant species; type: in vivo, Brassica napus; conditions: Brassica napus, post-emergence, 336 h, read-out: percent postemergent control
Description: as §1

crabgrass = assay: Postemergent control of plant species; type: in vivo, Digitaria spp.; conditions: Digitaria sanguinalis, post-emergence, 336 h, read-out: percent postemergent control
Description: as §1

yellow foxtail [8] = assay: Postemergent control of plant species; type: in vivo, Setaria lutescens; conditions: Setaria, post-emergence, 336 h, read-out: percent postemergent control
Description: as §1

annual morning glory [9] = assay: Postemergent control of plant species; type: in vivo, Ipomoea spp.; conditions: Ipomoea, post-emergence, 336 h, read-out: percent postemergent control
Description: as §1

sorghum [10] = assay: Postemergent control of plant species; type: in vivo, Sorghum vulgare; conditions: Sorghum, post-emergence, 336 h, read-out: percent postemergent control
Description: as §1

soybean [11] = assay: Postemergent control of plant species; type: in vivo, Glycine max.; conditions: Glycine max, post-emergence, 336 h, read-out: percent postemergent control
Description: as §1

jimsonweed [12] = assay: Postemergent control of plant species; type: in vivo, Datura stramonium; conditions: Datura stramonium, post-emergence, 336 h, read-out: percent postemergent control
Description: as §1

sugar beet [13] = assay: Postemergent control of plant species; type: in vivo, Beta saccharifera; conditions: Beta vulgaris, post-emergence, 336 h, read-out: percent postemergent control
Description: as §1

corn [14] = assay: Postemergent control of plant species; type: in vivo, Zea mays; conditions: Zea mays, post-emergence, 336 h, read-out: percent postemergent control
Description: as §1

cocklebur = assay: Postemergent control of plant species; type: in vivo, Xanthium spp.; conditions: Xanthium strumarium, post-emergence, 336 h, read-out: percent postemergent control
Description: as §1

[15] = tested on: nitrification of ammonium nitrogen; assay: Suppression of nitrification of ammonium nitrogen in soil; conditions: 27° C.
How it was run: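 Soil (20 g) moistened to its 1/3 bar tension value, mixed with test chemical and incubated sealed for two weeks at 27° C. Nitrate extracted with ammonium sulfate solution and measured by nitrate-specific ion electrode; value given as % NH4-N remaining.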

pigweed = assay: Postemergent control of plant species; type: in vivo, Amaranthus spp.; conditions: Amaranthus retroflexus, post-emergence, 336 h, read-out: percent postemergent control
Description: as §1

wheat [16] = assay: Postemergent control of plant species; type: in vivo, Triticum aestivum; conditions: Triticum aestivum, post-emergence, 336 h, read-out: percent postemergent control
Description: as §1

sorghum [17] = assay: Preemergent control of plant species; type: in vivo, Sorghum vulgare; conditions: Sorghum, pre-emergence, 336 h; 0.25 lb/acre; read-out: percent preemergent control
How it was run: (§2)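 Growth reduction relative to untreated plants of the same species, assessed two weeks after treatment, defines the control value. Compositions, mostly aqueous emulsions, were deposited uniformly on seeded greenhouse soil beds at the tabulated rates, with a water-treated bed as reference.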

barnyardgrass [18] = assay: Preemergent control of plant species; type: in vivo, Echinochloa crusgalli; conditions: Echinochloa crus-galli, pre-emergence, 336 h; 0.25 lb/acre; read-out: percent preemergent control
How it was run: as §2

jimsonweed [19] = assay: Preemergent control of plant species; type: in vivo, Datura stramonium; conditions: Datura stramonium, pre-emergence, 336 h; 0.25 lb/acre; read-out: percent preemergent control
How it was run: as §2

sugar beet [20] = assay: Preemergent control of plant species; type: in vivo, Beta saccharifera; conditions: Beta vulgaris, pre-emergence, 336 h; 0.25 lb/acre; read-out: percent preemergent control
How it was run: as §2

wheat [21] = assay: Preemergent control of plant species; type: in vivo, Triticum aestivum; conditions: Triticum aestivum, pre-emergence, 336 h; 0.25 lb/acre; read-out: percent preemergent control
How it was run: as §2

cotton [22] = assay: Preemergent control of plant species; type: in vivo, Gossypium spp.; conditions: Gossypium hirsutum, pre-emergence, 336 h; 0.25 lb/acre; read-out: percent preemergent control
How it was run: as §2

yellow nutsedge [23] = assay: Preemergent control of plant species; type: in vivo, Cyperus esculentus; conditions: Cyperus, pre-emergence, 336 h; 0.25 lb/acre; read-out: percent preemergent control
How it was run: as §2

johnson grass [24] = assay: Preemergent control of plant species; type: in vivo, Sorghum halepense; conditions: Sorghum halepense, pre-emergence, 336 h; 0.25 lb/acre; read-out: percent preemergent control
How it was run: as §2

annual morning glory [25] = assay: Preemergent control of plant species; type: in vivo, Ipomoea spp.; conditions: Ipomoea, pre-emergence, 336 h; 0.25 lb/acre; read-out: percent preemergent control
How it was run: as §2

yellow foxtail [26] = assay: Preemergent control of plant species; type: in vivo, Setaria lutescens; conditions: Setaria, pre-emergence, 336 h; 0.25 lb/acre; read-out: percent preemergent control
How it was run: as §2

corn [27] = assay: Preemergent control of plant species; type: in vivo, Zea mays; conditions: Zea mays, pre-emergence, 336 h; 0.25 lb/acre; read-out: percent preemergent control
How it was run: as §2

rice [28] = assay: Preemergent control of plant species; type: in vivo, Oryza sativa; conditions: Oryza sativa, pre-emergence, 336 h; 0.25 lb/acre; read-out: percent preemergent control
How it was run: as §2

velvetleaf [29] = assay: Preemergent control of plant species; type: in vivo, Abutilon theophrasti; conditions: Abutilon theophrasti, pre-emergence, 336 h; 0.25 lb/acre; read-out: percent preemergent control
How it was run: as §2

soybean [30] = assay: Preemergent control of plant species; type: in vivo, Glycine max.; conditions: Glycine max, pre-emergence, 336 h; 0.25 lb/acre; read-out: percent preemergent control
How it was run: as §2

rape [31] = assay: Preemergent control of plant species; type: in vivo, Brassica napus; conditions: Brassica napus, pre-emergence, 336 h; 0.25 lb/acre; read-out: percent preemergent control
How it was run: as §2

Compound: Cc1cc(C)n2nc(S(=O)(=O)Nc3c(Cl)cc(Cl)cc3Cl)nc2n1 [Compound 35, 5,7-dimethyl-N-(2,4,6-trichlorophynyl)-1,2,4-trizaolo[1,5-a]pyrimidine-2-sulfonamide]
- pest or weed control at 500 ppm (wild oats): 0%
- pest or weed control at 500 ppm (johnson grass [1]): 0%
- plant injury at 500 ppm (cotton [2]): 0%
- pest or weed control at 500 ppm (yellow nutsedge [3]): 0%
- pest or weed control at 500 ppm (velvetleaf [4]): 0%
- plant injury at 500 ppm (rice [5]): 0%
- pest or weed control at 500 ppm (barnyardgrass [6]): 0%
- plant injury at 500 ppm (rape [7]): 70%
- pest or weed control at 500 ppm (crabgrass): 0%
- pest or weed control at 500 ppm (yellow foxtail [8]): 0%
- pest or weed control at 500 ppm (annual morning glory [9]): 40%
- plant injury at 500 ppm (sorghum [10]): 20%
- plant injury at 500 ppm (soybean [11]): 70%
- pest or weed control at 500 ppm (jimsonweed [12]): 30%
- plant injury at 500 ppm (sugar beet [13]): 80%
- plant injury at 500 ppm (corn [14]): 0%
- pest or weed control at 500 ppm (cocklebur): 95%
- % NH4-N Remaining After 2 Weeks Incubation ([15]; 0.01 ppm): 0%
- % NH4-N Remaining After 2 Weeks Incubation ([15]; 0.1 ppm): 3%
- % NH4-N Remaining After 2 Weeks Incubation ([15]; 1 ppm): 50%
- % NH4-N Remaining After 2 Weeks Incubation ([15]; 10 ppm): 78%
- pest or weed control at 500 ppm (pigweed): 90%

Compound: Cc1cc(C)n2nc(S(=O)(=O)Nc3ccccc3S(C)(=O)=O)nc2n1 [Compound 45]
- plant injury at 500 ppm (wheat [16]): 0%
- pest or weed control at 500 ppm (wild oats): 0%
- pest or weed control at 500 ppm (johnson grass [1]): 0%
- plant injury at 500 ppm (cotton [2]): 0%
- pest or weed control at 500 ppm (yellow nutsedge [3]): 0%
- pest or weed control at 500 ppm (velvetleaf [4]): 50%
- plant injury at 500 ppm (rice [5]): 50%
- pest or weed control at 500 ppm (barnyardgrass [6]): 0%
- plant injury at 500 ppm (rape [7]): 70%
- pest or weed control at 500 ppm (crabgrass): 0%
- pest or weed control at 500 ppm (yellow foxtail [8]): 0%
- pest or weed control at 500 ppm (annual morning glory [9]): 10%
- plant injury at 500 ppm (sorghum [10]): 0%
- plant injury at 500 ppm (soybean [11]): 60%
- pest or weed control at 500 ppm (jimsonweed [12]): 0%
- plant injury at 500 ppm (sugar beet [13]): 70%
- plant injury at 500 ppm (corn [14]): 0%
- pest or weed control at 500 ppm (cocklebur): 25%
- % NH4-N Remaining After 2 Weeks Incubation ([15]; 0.01 ppm): 0%
- % NH4-N Remaining After 2 Weeks Incubation ([15]; 0.1 ppm): 3%
- % NH4-N Remaining After 2 Weeks Incubation ([15]; 1 ppm): 45%
- % NH4-N Remaining After 2 Weeks Incubation ([15]; 10 ppm): 94%

Compound: COc1ccc(Cl)c(NS(=O)(=O)c2nc3nc(C)ccn3n2)c1Cl [Compound 170]
- plant injury at 280.212 g/ha (sorghum [17]): 80%
- pest or weed control at 280.212 g/ha (barnyardgrass [18]): 40%
- plant injury at 500 ppm (wheat [16]): 0%
- pest or weed control at 500 ppm (wild oats): 80%
- pest or weed control at 280.212 g/ha (jimsonweed [19]): 0%
- plant injury at 280.212 g/ha (sugar beet [20]): 90%
- pest or weed control at 500 ppm (johnson grass [1]): 85%
- plant injury at 280.212 g/ha (wheat [21]): 10%
- plant injury at 280.212 g/ha (cotton [22]): 70%
- plant injury at 500 ppm (cotton [2]): 50%
- pest or weed control at 500 ppm (yellow nutsedge [3]): 98%
- pest or weed control at 500 ppm (velvetleaf [4]): 90%
- pest or weed control at 280.212 g/ha (yellow nutsedge [23]): 0%
- plant injury at 500 ppm (rice [5]): 35%
- pest or weed control at 280.212 g/ha (johnson grass [24]): 90%
- pest or weed control at 280.212 g/ha (annual morning glory [25]): 30%
- pest or weed control at 500 ppm (barnyardgrass [6]): 75%
- pest or weed control at 280.212 g/ha (yellow foxtail [26]): 70%
- plant injury at 280.212 g/ha (corn [27]): 20%
- pest or weed control at 500 ppm (crabgrass): 60%
- pest or weed control at 500 ppm (yellow foxtail [8]): 80%
- plant injury at 280.212 g/ha (rice [28]): 30%
- pest or weed control at 500 ppm (annual morning glory [9]): 70%
- pest or weed control at 280.212 g/ha (velvetleaf [29]): 85%
- plant injury at 500 ppm (sorghum [10]): 25%
- plant injury at 500 ppm (soybean [11]): 30%
- pest or weed control at 500 ppm (jimsonweed [12]): 90%
- plant injury at 500 ppm (sugar beet [13]): 95%
- plant injury at 500 ppm (corn [14]): 25%
- plant injury at 280.212 g/ha (soybean [30]): 0%
- plant injury at 280.212 g/ha (rape [31]): 100%
- pest or weed control at 500 ppm (cocklebur): 25%
- pest or weed control at 500 ppm (pigweed): 100%
